Results on 40 compounds are retold here after PubChem BioAssay (NCI).

What all share (test): NCI tumour cell line growth inhibition, 48 h
The test system of assay [1] is DLD-1 colon.
The subject of assay [2] is KM20L2 colon.
In assay [3] the test system is HOP-18 NSCLC.
Assay [4] deals with SNB-78 CNS.
Assay [5] has as its system LXFL 529 NSCLC.
Assay [6] deals with MDA-N.
Assay [7] relates to XF 498 CNS.
For assay [8], the system named is DMS 114 small cell lung.
In assay [9] the test system is RXF-631 renal.
In assay [10] the test system is SN12K1 renal.
The subject of assay [11] is P388 leukemia.
The subject of assay [12] is P388/ADR leukemia.

“And” between values parts separate entries of the source, which are not always exact repeats. Identical values can stand only once.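 Method: 48-hour compound exposure of cells in 96-well plates, five concentrations, linear interpolation of endpoints. At the GI50, growth is halved. TGI denotes the concentration required for complete inhibition of growth.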

For the compound `CC(C)CCCC(C)[C@H]1CCC2[C@@H]3CCC4Nc5nocc5C[C@]4(C)C3CC[C@@]21C` (some centres undefined), the TGI in assay [1] turned out to be 41 µM; in assay [2], 41.7 µM; in [3], 34.7 µM; in [4] it was 42.1 µM; in [5], 27.3 µM.
Consider `O=CN/C=C/c1cccc(O)c1`, for which the TGI in [1] was above 100 µM; in assay [6], above 85 µM; in assay [2], above 100 µM; in assay [3] it was above 100 µM; in [4], above 100 µM; in [7], above 100 µM. Also, the TGI in [5] and in assay [8] was above 100 µM in each case.
`COCC(O)Cn1ccnc1[N+](=O)[O-]` (centres undefined): the TGI in assay [2], in assay [4], in assay [7] and in [8] was above 100 µM each time.
Consider `Cc1cc2c(C)nn(Cc3ccccc3)c2c(C(N)=O)c1C`, for which the TGI in assay [1], in assay [2], in assay [4], in [7], in assay [5] and in [8] was above 100 µM in each case.
`COc1cccc2c1C(=O)c1c(O)c3c(c(O)c1C2=O)CC(O)(C(O)CO)CC3OC1CC(N2CCOCC2)C(O)C(C)O1` (centres undefined): the TGI was 0.1 µM in assay [6]; 0.0943 µM in assay [2]; 0.00797 µM in assay [3]; 0.0323 µM and 0.188 µM in assay [4]; 0.0478 µM in assay [7]; 0.0553 µM in assay [5]. Further, the GI50 in [4] and in assay [8] was below 0.001 µM in each case.
In assay [6], `c1ccc(CN2CCC3(CC2)SSC2(CCN(Cc4ccccc4)CC2)S3)cc1` had a TGI above 100 µM.
For the compound `O=c1cc(-c2ccccc2F)[nH]c2ccc(N3CCCC3)cc12`, the GI50 in assay [6] is below 0.001 µM.
For `COC1OC(CBr)C(OC(=O)c2ccccc2)C(O)C1Br` (centres undefined), the TGI is above 100 µM in assay [1]; above 100 µM in assay [2]; above 100 µM in assay [3]; above 100 µM in assay [4]; above 10 µM in assay [7]; above 100 µM in [5].
Take `O=C1Nc2nc3ccccc3n2N=C2CCCC12` (centres undefined): the TGI in assay [9], in assay [1], in assay [2], in [4], in assay [7] and in assay [5] was above 100 µM throughout. For the same compound, in assay [8], the TGI was above 100 µM.
As for `C#CC1(O)C(COP(=O)(O)OC(COCCCCCCCCCCCCCCCCCC)COP(=O)(O)OCC2OC(n3cc(F)c(=O)[nH]c3=O)CC2O)OC(n2ccc(N)nc2=O)C1O` (centres undefined), the TGI in assay [6] is 12.4 µM and 13.7 µM.
With `COc1c(O)cc2oc(-c3ccc(O)cc3)cc(=O)c2c1O`, the TGI in assay [6] is above 100 µM.
On to `CC(=O)C(=Cc1ccc(C=C(C(C)=O)C(C)=O)cc1)C(C)=O`, for which the TGI in [6] stood at 5.94 µM.
For the compound `COc1cc(NC(C)CCCN)c2ncccc2c1` (centres undefined), the TGI was above 100 µM in [9]; above 100 µM in assay [1]; above 82.1 µM in assay [6]; above 100 µM in [2]; above 100 µM in assay [3]; above 100 µM in [4]. The values for the TGI in assay [7], in [5] and in assay [8] were 73.2 µM, above 100 µM and above 89 µM, respectively.
For `C[C@]12CCC(=O)C=C1CC[C@@H]1C2CC[C@]2(C)Nc3c(cnn3-c3ccccc3)CC12` (some centres undefined), the TGI in assay [9], in assay [1], in assay [2], in [4], in assay [7] and in assay [5] was above 100 µM throughout. For the same compound, the TGI in assay [8] is above 100 µM.
For the compound `N.N.N.N.N.[Cl-].[Co+3].c1ccc(-c2nn[n-]n2)cc1`, the GI50 in assay [1] was above 100 µM; in assay [2], above 100 µM; in assay [3] it was 93.1 µM; in [4] it was above 100 µM; in assay [5], above 100 µM. The TGI in assay [1], in [2], in [3], in assay [4] and in assay [5] was above 100 µM each time.
For the compound `O=c1[nH]nc2ccccc2c1Cc1ccccc1`, the TGI in assay [1], in assay [2], in assay [3], in assay [4], in [7] and in assay [8] was above 100 µM each time.
In assay [6], `COc1ccc2c(=O)cc(-c3ccncc3)oc2c1OC` displayed a TGI of 98.9 µM.
On to `COC(=O)c1ccccc1OCc1cc(=O)oc2ccc(C)cc12`, for which the TGI in assay [9] was above 100 µM; in assay [1] it was above 100 µM; in assay [6], above 100 µM; in assay [2], above 100 µM; in assay [7], 90.4 µM; in assay [5] it was above 100 µM. In assay [8], this compound registered a TGI above 100 µM.
Consider `C1COCCN1.C1COCCN1.NC1CCCCC1N.[Cl-].[Pt+2]` (centres undefined), for which the GI50 in [1], in assay [2], in [3], in assay [4] and in [5] was above 100 µM throughout. Also, the TGI in assay [1], in assay [2], in assay [3], in assay [4] and in assay [5] was above 100 µM each time.
Consider `CC1OC(OC2C[C@](O)(C(=O)CF)Cc3c(O)c4c(c(O)c32)C(=O)c2ccccc2C4=O)CC(N)C1O` (some centres undefined), for which the TGI in assay [1] came to 0.333 µM; in [6], 0.333 µM; in assay [2], 0.353 µM; in assay [4], 3.53 µM; in [7], 0.389 µM; in [5], 1.27 µM. The same compound yielded a TGI in assay [8] of 0.142 µM.
With `CCN(CC)CCOc1ccc(CCc2cc(OC)c(OC)c(OC)c2)cc1`, the TGI was above 100 µM in assay [9]; above 100 µM in [1]; above 100 µM in [2]; above 100 µM in assay [3]; above 100 µM in assay [4]; 57.7 µM in assay [7]. Moreover, the TGI in [5] was above 100 µM; in [8], 73.8 µM.
For the compound `Cc1ccc(SSc2ccc(C)cc2C(=O)O)c(C(=O)O)c1`, the TGI in assay [9], in assay [1], in assay [2], in assay [4] and in assay [5] was above 100 µM throughout.
Take `COc1cc2ccccc2oc1=O`: in assay [6], the TGI was above 100 µM.
`O=C1NC2(CCCCCC2)C2CCCCCCC12O` (centres undefined): the TGI in assay [1], in assay [3], in [4], in assay [7], in [5] and in assay [8] was above 100 µM each time.
For the compound `c1cc2n(n1)CCN2`, the TGI is above 10000 µM in assay [1]; 5980 µM in assay [10]; above 10000 µM in assay [6]; 2770 µM in assay [11]; above 10000 µM in assay [2]; above 10000 µM in assay [3]. Besides, the TGI in assay [4] is above 8740 µM; in [12], 4830 µM; in assay [7], 6960 µM; in assay [8], above 8170 µM.
`Cc1oc2c(C)c3oc(=O)cc(C)c3cc2c1CN1C(=O)C2OCCOCCOCCOCCOCCO[C@H]2C1=O` (some centres undefined): the TGI in assay [9] was 74.2 µM; in [1], above 100 µM; in assay [2], above 100 µM; in assay [3], above 100 µM; in [4], above 100 µM; in assay [5] it was above 100 µM. In assay [8], this compound had a TGI above 100 µM.
Consider `C1=CC=C2NCCCCCCCNC3=CC=CC=CC3=NCCCCCCCN=C2C=C1`, for which the TGI in [9] was 25.7 µM; in assay [1], above 100 µM; in assay [2], above 100 µM; in [7] it was above 100 µM; in assay [5], above 100 µM.
Consider `O=C(O)c1cc2ccc3ccccc3c2oc1=O`, for which the TGI in assay [6] was above 100 µM.
Still for that read-out and setting: the value for `O=[N+]([O-])c1ccc2c(c1)Cc1cc(N=Cc3ccc4c(c3)OCO4)ccc1-2` was above 100 µM; that for `O=C(O)C1OC1(c1cccc(Cl)c1)c1ccccc1Cl` (centres undefined) was 65.6 µM; that for `COc1cc2oc3cc(=O)cc4oc(-c5ccccc5)cc(c2c2c1CCC(c1ccccc1)O2)c43` (centres undefined) was above 100 µM.
On to `O=C1C2C3C=C4c5ccccc5N(c5ccccc5)C4(C2C(=O)N1c1ccc(Cl)cc1)[C@H]1C(=O)N(c2ccc(Cl)cc2)C(=O)[C@@H]31` (some centres undefined), for which the TGI in [9], in assay [1], in assay [2], in assay [3], in assay [4] and in [7] was above 100 µM each time. For the same compound, the TGI in [5] and in assay [8] was above 100 µM in each case.
Regarding `N#CCCN(CCCN(CCCN(C(=O)Nc1ccccc1)c1ccccc1)C(=O)Nc1ccccc1)C(=O)Nc1ccccc1`, in assay [6], the GI50 is above 100 µM and the TGI was above 100 µM.
On to `O=C(CC(=O)C1=CNc2ccccc2S1)C(=O)Nc1ccc(Cl)cc1`, for which the TGI in assay [9], in [1], in [2], in assay [4], in assay [7] and in assay [5] was above 50 µM throughout. Moreover, in assay [8], the TGI was above 50 µM.
Consider `COc1ccc(C2CC(C)(O)Oc3cc4c(cc32)OCO4)cc1` (centres undefined), for which the TGI in assay [6] is 36.4 µM.
Turning to `COc1ccc2c(c1)[n+]([O-])c(-c1ccc(OC)c(OC)c1)c(N)[n+]2[O-]`, the TGI in assay [1], in assay [2], in assay [3], in assay [4], in assay [7] and in assay [5] was above 100 µM each time. The TGI in assay [8] is above 100 µM.
As to `Cc1cc(NCCCCCCNc2cc(C)nc3cc(N(C)C)ccc23)c2ccc(N(C)C)cc2n1`, the TGI in assay [9] is above 100 µM; in assay [1], above 100 µM; in assay [7], 59 µM.
For `OCC(O)C(Cl)CCl` (centres undefined), in [6], the TGI was above 100 µM.
With `OCC1C(/C=C/c2ccoc2)ON2CCCC12` (centres undefined), the TGI in [1] was above 100 µM; in assay [2] it was above 100 µM; in [3], 86 µM; in assay [4], above 100 µM; in [7], above 100 µM; in [5], above 100 µM.
Turning to `COC1/C=C/C(C)C(C(C)C(OC)C(C)CCC(=O)C(C)C(C/C=C/N(C)C=O)OC)OC(=O)/C=C/C=C(\C)CC(OC)CC2=CC(=O)O[C@H](C2)C(C)C(OC)CC(OC)/C=C/C(C)C(OC)C1` (some centres undefined), in [6], the GI50 was 0.0472 µM and the TGI was found to be 1.11 µM.
